Measurements taken from PubChem BioAssay AID1963438 (Molecular Pharmacology Branch, DTP, NCI, 2024).
Blank lines part the entries; values can stand above or below the compound they belong to.

System: NCI-H510 multicellular tumor spheroid growth, % test/control
Assay: Anticancer human tumor NCI-H510 cell line growth inhibition [Asc];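 further: spheroids exposed to agents for 7 days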;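 on viability, T/C: 100% = DMSO vehicle control wells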
Conditions: for IC50: curve of first compound; for viability, T/C: stronger effect = lower value
Outline: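 Tumor cells were grown as complex spheroids with human endothelial cells (HUVEC) and human mesenchymal stem cells as stroma. Agents were tested alone and in combination, in half-log steps down from the clinical Cmax, or from 10 microM where Cmax was unknown.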

[1] = second compound 0.01 µM, first compound 0.00316 µM
[2] = second compound 0.01 µM, first compound 0.01 µM
[3] = second compound 0.01 µM, first compound 0.0316 µM
[4] = second compound 0.01 µM, first compound 0.1 µM
[5] = second compound 0.01 µM, first compound 0.316 µM
[6] = second compound 0.01 µM, first compound 1 µM
[7] = second compound 0.0316 µM, first compound 0.00316 µM
[8] = second compound 0.0316 µM, first compound 0.01 µM
[9] = second compound 0.0316 µM, first compound 0.0316 µM
[10] = second compound 0.0316 µM, first compound 0.1 µM
[11] = second compound 0.0316 µM, first compound 0.316 µM
[12] = second compound 0.0316 µM, first compound 1 µM
[13] = second compound 0.1 µM, first compound 0.00316 µM
[14] = second compound 0.1 µM, first compound 0.01 µM
[15] = second compound 0.1 µM, first compound 0.0316 µM
[16] = second compound 0.1 µM, first compound 0.1 µM
[17] = second compound 0.1 µM, first compound 0.316 µM
[18] = second compound 0.1 µM, first compound 1 µM
[19] = second compound 0.316 µM, first compound 0.00316 µM
[20] = second compound 0.316 µM, first compound 0.01 µM
[21] = second compound 0.316 µM, first compound 0.0316 µM
[22] = second compound 0.316 µM, first compound 0.1 µM
[23] = second compound 0.316 µM, first compound 0.316 µM
[24] = second compound 0.316 µM, first compound 1 µM
[25] = second compound 1 µM, first compound 0.00316 µM
[26] = second compound 1 µM, first compound 0.01 µM
[27] = second compound 1 µM, first compound 0.0316 µM
[28] = second compound 1 µM, first compound 0.1 µM
[29] = second compound 1 µM, first compound 0.316 µM
[30] = second compound 1 µM, first compound 1 µM
[31] = second compound 0.01 µM, first compound 0.000316 µM
[32] = second compound 0.01 µM, first compound 0.001 µM
[33] = second compound 0.0316 µM, first compound 0.000316 µM
[34] = second compound 0.0316 µM, first compound 0.001 µM
[35] = second compound 0.1 µM, first compound 0.000316 µM
[36] = second compound 0.1 µM, first compound 0.001 µM
[37] = second compound 0.316 µM, first compound 0.000316 µM
[38] = second compound 0.316 µM, first compound 0.001 µM
[39] = second compound 1 µM, first compound 0.000316 µM
[40] = second compound 1 µM, first compound 0.001 µM

SMILES: CCN1CCN(Cc2ccc(Nc3ncc(F)c(-c4cc(F)c5nc(C)n(C(C)C)c5c4)n3)nc2)CC1 + CNC(C)C(=O)NC1CN(S(=O)(=O)c2cccc(S(=O)(=O)N3CCC4CCC(C(=O)NC(c5ccccc5)c5ccccc5)N4C(=O)C(NC(=O)C(C)NC)C3)c2)CCC2CCC(C(=O)NC(c3ccccc3)c3ccccc3)N2C1=O
- IC50 (second compound 0.01 µM): > 1 µM
- IC50 (second compound 0.0316 µM): > 1 µM
- IC50 (second compound 0.1 µM): > 1 µM
- IC50 (second compound 0.316 µM): > 1 µM
- IC50 (second compound 1 µM): > 1 µM
- viability, T/C [1]: 109%
- viability, T/C [2]: 117%
- viability, T/C [3]: 124%
- viability, T/C [4]: 112%
- viability, T/C [5]: 150%
- viability, T/C [6]: 128%
- viability, T/C [7]: 108%
- viability, T/C [8]: 94%
- viability, T/C [9]: 114%
- viability, T/C [10]: 113%
- viability, T/C [11]: 117%
- viability, T/C [12]: 136%
- viability, T/C [13]: 113%
- viability, T/C [14]: 95.5%
- viability, T/C [15]: 99.3%
- viability, T/C [16]: 108%
- viability, T/C [17]: 108%
- viability, T/C [18]: 117%
- viability, T/C [19]: 114%
- viability, T/C [20]: 117%
- viability, T/C [21]: 110%
- viability, T/C [22]: 115%
- viability, T/C [23]: 107%
- viability, T/C [24]: 128%
- viability, T/C [25]: 111%
- viability, T/C [26]: 112%
- viability, T/C [27]: 107%
- viability, T/C [28]: 115%
- viability, T/C [29]: 123%
- viability, T/C [30]: 127%

SMILES: O=C(c1ccc(F)c(F)c1Nc1ccc(I)cc1F)N1CC(O)([C@@H]2CCCCN2)C1 + CNC(C)C(=O)NC1CN(S(=O)(=O)c2cccc(S(=O)(=O)N3CCC4CCC(C(=O)NC(c5ccccc5)c5ccccc5)N4C(=O)C(NC(=O)C(C)NC)C3)c2)CCC2CCC(C(=O)NC(c3ccccc3)c3ccccc3)N2C1=O
- IC50 (second compound 0.01 µM): > 1 µM
- IC50 (second compound 0.0316 µM): > 1 µM
- IC50 (second compound 0.1 µM): > 1 µM
- IC50 (second compound 0.316 µM): > 1 µM
- IC50 (second compound 1 µM): > 1 µM
- viability, T/C [1]: 98.5%
- viability, T/C [2]: 113%
- viability, T/C [3]: 102%
- viability, T/C [4]: 101%
- viability, T/C [5]: 102%
- viability, T/C [6]: 79.6%
- viability, T/C [7]: 94.7%
- viability, T/C [8]: 103%
- viability, T/C [9]: 88%
- viability, T/C [10]: 102%
- viability, T/C [11]: 100%
- viability, T/C [12]: 90.3%
- viability, T/C [13]: 112%
- viability, T/C [14]: 95.2%
- viability, T/C [15]: 104%
- viability, T/C [16]: 97.2%
- viability, T/C [17]: 92.1%
- viability, T/C [18]: 101%
- viability, T/C [19]: 102%
- viability, T/C [20]: 101%
- viability, T/C [21]: 104%
- viability, T/C [22]: 105%
- viability, T/C [23]: 100%
- viability, T/C [24]: 108%
- viability, T/C [25]: 109%
- viability, T/C [26]: 111%
- viability, T/C [27]: 101%
- viability, T/C [28]: 90.2%
- viability, T/C [29]: 99.7%
- viability, T/C [30]: 84.7%

Second part, led by results:

- IC50 (second compound 0.01 µM): > 0.1 µM
- IC50 (second compound 0.0316 µM): > 0.1 µM
- IC50 (second compound 0.1 µM): > 0.1 µM
- IC50 (second compound 0.316 µM): > 0.1 µM
- IC50 (second compound 1 µM): > 0.1 µM
SMILES: Cn1ncnc1[C@H]1c2n[nH]c(=O)c3cc(F)cc(c23)N[C@@H]1c1ccc(F)cc1 + CNC(C)C(=O)NC1CN(S(=O)(=O)c2cccc(S(=O)(=O)N3CCC4CCC(C(=O)NC(c5ccccc5)c5ccccc5)N4C(=O)C(NC(=O)C(C)NC)C3)c2)CCC2CCC(C(=O)NC(c3ccccc3)c3ccccc3)N2C1=O
- viability, T/C [31]: 102%
- viability, T/C [32]: 101%
- viability, T/C [1]: 105%
- viability, T/C [2]: 104%
- viability, T/C [3]: 72.2%
- viability, T/C [4]: 85.8%
- viability, T/C [33]: 96%
- viability, T/C [34]: 102%
- viability, T/C [7]: 97%
- viability, T/C [8]: 97.2%
- viability, T/C [9]: 78%
- viability, T/C [10]: 98.4%
- viability, T/C [35]: 110%
- viability, T/C [36]: 97%
- viability, T/C [13]: 104%
- viability, T/C [14]: 98.2%
- viability, T/C [15]: 72.1%
- viability, T/C [16]: 91.4%
- viability, T/C [37]: 113%
- viability, T/C [38]: 108%
- viability, T/C [19]: 96.6%
- viability, T/C [20]: 96%
- viability, T/C [21]: 56.8%
- viability, T/C [22]: 93.6%
- viability, T/C [39]: 110%
- viability, T/C [40]: 106%
- viability, T/C [25]: 106%
- viability, T/C [26]: 97.5%
- viability, T/C [27]: 92.3%
- viability, T/C [28]: 91.1%

- IC50 (second compound 0.01 µM): > 0.3 µM
- IC50 (second compound 0.0316 µM): > 0.3 µM
- IC50 (second compound 0.1 µM): > 0.3 µM
- IC50 (second compound 0.316 µM): > 0.3 µM
- IC50 (second compound 1 µM): > 0.3 µM
SMILES: NC(=O)C(=Cn1cnc(-c2cc(C(F)(F)F)cc(C(F)(F)F)c2)n1)c1cncnc1 + CNC(C)C(=O)NC1CN(S(=O)(=O)c2cccc(S(=O)(=O)N3CCC4CCC(C(=O)NC(c5ccccc5)c5ccccc5)N4C(=O)C(NC(=O)C(C)NC)C3)c2)CCC2CCC(C(=O)NC(c3ccccc3)c3ccccc3)N2C1=O
- viability, T/C (second compound 0.01 µM, first compound 0.000949 µM): 104%
- viability, T/C (second compound 0.01 µM, first compound 0.003 µM): 112%
- viability, T/C (second compound 0.01 µM, first compound 0.00949 µM): 104%
- viability, T/C (second compound 0.01 µM, first compound 0.03 µM): 92.3%
- viability, T/C (second compound 0.01 µM, first compound 0.0949 µM): 110%
- viability, T/C (second compound 0.01 µM, first compound 0.3 µM): 101%
- viability, T/C (second compound 0.0316 µM, first compound 0.000949 µM): 92.3%
- viability, T/C (second compound 0.0316 µM, first compound 0.003 µM): 101%
- viability, T/C (second compound 0.0316 µM, first compound 0.00949 µM): 102%
- viability, T/C (second compound 0.0316 µM, first compound 0.03 µM): 108%
- viability, T/C (second compound 0.0316 µM, first compound 0.0949 µM): 112%
- viability, T/C (second compound 0.0316 µM, first compound 0.3 µM): 108%
- viability, T/C (second compound 0.1 µM, first compound 0.000949 µM): 110%
- viability, T/C (second compound 0.1 µM, first compound 0.003 µM): 94.5%
- viability, T/C (second compound 0.1 µM, first compound 0.00949 µM): 107%
- viability, T/C (second compound 0.1 µM, first compound 0.03 µM): 110%
- viability, T/C (second compound 0.1 µM, first compound 0.0949 µM): 112%
- viability, T/C (second compound 0.1 µM, first compound 0.3 µM): 96.8%
- viability, T/C (second compound 0.316 µM, first compound 0.000949 µM): 115%
- viability, T/C (second compound 0.316 µM, first compound 0.003 µM): 116%
- viability, T/C (second compound 0.316 µM, first compound 0.00949 µM): 109%
- viability, T/C (second compound 0.316 µM, first compound 0.03 µM): 87.3%
- viability, T/C (second compound 0.316 µM, first compound 0.0949 µM): 109%
- viability, T/C (second compound 0.316 µM, first compound 0.3 µM): 95.9%
- viability, T/C (second compound 1 µM, first compound 0.000949 µM): 93.7%
- viability, T/C (second compound 1 µM, first compound 0.003 µM): 107%
- viability, T/C (second compound 1 µM, first compound 0.00949 µM): 93.6%
- viability, T/C (second compound 1 µM, first compound 0.03 µM): 104%
- viability, T/C (second compound 1 µM, first compound 0.0949 µM): 105%
- viability, T/C (second compound 1 µM, first compound 0.3 µM): 92.9%

- IC50 (second compound 0.01 µM): > 0.1 µM
- IC50 (second compound 0.0316 µM): > 0.1 µM
- IC50 (second compound 0.1 µM): > 0.1 µM
- IC50 (second compound 0.316 µM): > 0.1 µM
- IC50 (second compound 1 µM): > 0.1 µM
SMILES: NC1CCC(NC2CC2c2ccccc2)CC1 (stereo not given) + CNC(C)C(=O)NC1CN(S(=O)(=O)c2cccc(S(=O)(=O)N3CCC4CCC(C(=O)NC(c5ccccc5)c5ccccc5)N4C(=O)C(NC(=O)C(C)NC)C3)c2)CCC2CCC(C(=O)NC(c3ccccc3)c3ccccc3)N2C1=O
- viability, T/C [31]: 85.6%
- viability, T/C [32]: 105%
- viability, T/C [1]: 97.4%
- viability, T/C [2]: 90%
- viability, T/C [3]: 105%
- viability, T/C [4]: 94.3%
- viability, T/C [33]: 98.7%
- viability, T/C [34]: 96.7%
- viability, T/C [7]: 92.3%
- viability, T/C [8]: 91.6%
- viability, T/C [9]: 96.9%
- viability, T/C [10]: 94.9%
- viability, T/C [35]: 107%
- viability, T/C [36]: 97.4%
- viability, T/C [13]: 91.2%
- viability, T/C [14]: 89.8%
- viability, T/C [15]: 96.9%
- viability, T/C [16]: 97.7%
- viability, T/C [37]: 99%
- viability, T/C [38]: 106%
- viability, T/C [19]: 91%
- viability, T/C [20]: 99.9%
- viability, T/C [21]: 102%
- viability, T/C [22]: 97.8%
- viability, T/C [39]: 114%
- viability, T/C [40]: 106%
- viability, T/C [25]: 97.9%
- viability, T/C [26]: 98.1%
- viability, T/C [27]: 94.3%
- viability, T/C [28]: 101%
